According to US8815852B2, “Carbamoyloxy arylalkan arylpiperazine analgesics” (SK Biopharmaceuticals Co., Ltd., priority 2007, dated 2014):
Where two headings read alike, the source gives them in different places.

Assays:
[1] = molecular target: 5-HT2A receptor (Rattus norvegicus (Rat), UniProt P14842); test: Binding to 5-HT2A receptor ([3H]-Ketanserin, rat cortical membranes); design: species or system Sprague-Dawley (SD) rats; conditions: for inhibition at 1 µM: 1 h, read-out: 5-HT2A: Suppression; for IC50: 0.5 nM [3H]-Ketanserin, read-out: 5-HT2A: IC50 (Concentration required to be 50% suppressed)
Procedure: Binding to 5-HT2A Receptor
6-week-old Sprague-Dawley (SD) rats were anesthetized in an ether container for 5 minutes, brains were separated from rats, and cortical regions were then separated from the brains of the rats. The cortical regions of the rats were put into a Tris-HCl buffer solution (50 mM, pH 7.7) and homogenized, and the homogenate was centrifuged twice at 4° C. at a rotary speed of 50,000 g to obtain a precipitate (membrane protein). The precipitate was put into a buffer solution, and homogenized, which was used later as a protein source. 0.5 nM [3H]-Ketanserin was used as a radioactive isotope, and 10 uM serotonin was used to remove non-specific bindings. 25 ul of the compound, 100 ul of an aqueous radioactive isotope solution, and 100 ul of the protein source were put together, and kept at 25° C. for 1 hour. The resulting mixture was filtered with a membrane filter in a 96-well harvester when the 96-well plate reaction was completed. The competitivity of the compound to [3H]-Ketanserin was determined by taking the membrane filter and measuring the radioactivity in a scintillation counter, and an IC50 value was determined by measuring the increasing concentration of the compound. The specific reaction of the compound accounted for 90% or more. The general experiments were carried out according to the method by Leysen et al. (1982, Eur. J. Pharmacol).

[2] = test system: male ICR mouse; test: Acetic acid-induced writhing test in mouse; format: in vivo; conditions: Mus musculus; for inhibition in vivo at 10 mg/kg: at 10 po (method: 10 mg/kg oral, 1 hour before acetic acid), read-out: AA Writhing: Suppression ratio of Pain response; for ED50: unit not given (method doses in mg/kg), read-out: AA Writhing: ED50
Procedure: 2. Acetic Acid-Induced Writhing Test in Mouse
An acetic acid-induced writhing test is one of models for measuring an analgesic effect of drugs. A test material dissolved in a suitable vehicle was orally administered to a male ICR mouse weighing 30 to 35 g at an amount of 10 mg/kg. After 1 hour of the oral administration, […] of an aqueous 0.8% acetic acid solution was intraperitoneally injected into the male ICR mouse to induce the abdominal pain of the male ICR mouse. Right after the administration of acetic acid, the male ICR mouse was put into an empty cage, and the number of writhing behaviors of the mice was counted for 10 minutes. The term “writhing represents a reflex action in which the mouse overtly extends its abdomen by stretching its hind legs due to the abdominal pain. The analgesic effect of the test material is represented by the ‘suppression ratio of pain response’ {[(Writhing number of Vehicle-administered group−Writhing number of Test material-administered group)/(Writhing number of Vehicle-administered group)]×100%} or 50% of Effective amount (ED50 (median effective dose); an amount of test material that is required to suppress 50% of pain behaviors) of Test material. The ED50 (median effective dose) was determined by calculating the suppression ratio of pain response in at least three doses of test materials and subjecting to the linear regression.

[3] = molecular target: 5-HT1A receptor (Rattus norvegicus (Rat), UniProt P19327); test: Binding to 5-HT1A receptor ([3H]-8-OH-DPAT, rat cortical membranes); design: species or system Sprague-Dawley (SD) rats; conditions: for inhibition at 1 µM: 1 h, read-out: 5-HT1A: Suppression; for IC50: 2 nM [3H]-8-OH-DPAT, read-out: 5-HT1A: IC50 (Concentration required to be 50% suppressed)
Procedure: Binding to 5-HT1A Receptor
6-week-old Sprague-Dawley (SD) rats were anesthetized in an ether container for 5 minutes, brains were separated from rats, and cortical regions were then separated from the brains of the rats. The cortical regions of the rats were put into a Tris-HCl buffer solution (50 mM, pH 7.4) and homogenized, and the homogenate was centrifuged twice at 4? at a rotary speed of 50,000 g to obtain a precipitate (membrane protein). The precipitate was put into a buffer solution, and homogenized, which was used later as a protein source. 2 nM [3H]-8-OH-DPAT was used as a radioactive isotope, and 10 uM serotonin was used to remove non-specific bindings. 25 ul of the compound, 100 ul of an aqueous radioactive isotope solution, and 100 ul of the protein source were put together, and kept at 25° C. for 1 hour. The resulting mixture was filtered with a membrane filter in a 96-well harvester when the 96-well plate reaction was completed. The competitivity of the compound to [3H]-8-OH-DPAT was determined by taking the membrane filter and measuring the radioactivity of the membrane filter in a scintillation counter, and an IC50 value was determined by measuring the increasing concentration of the compound. The specific reaction of the compound accounted for 90% or more. The general experiments were carried out according to the method by Middlemiss et al. (1984, Eur. J. Pharmacol.).

5-HT1A receptor, sequence (P19327 whole entry): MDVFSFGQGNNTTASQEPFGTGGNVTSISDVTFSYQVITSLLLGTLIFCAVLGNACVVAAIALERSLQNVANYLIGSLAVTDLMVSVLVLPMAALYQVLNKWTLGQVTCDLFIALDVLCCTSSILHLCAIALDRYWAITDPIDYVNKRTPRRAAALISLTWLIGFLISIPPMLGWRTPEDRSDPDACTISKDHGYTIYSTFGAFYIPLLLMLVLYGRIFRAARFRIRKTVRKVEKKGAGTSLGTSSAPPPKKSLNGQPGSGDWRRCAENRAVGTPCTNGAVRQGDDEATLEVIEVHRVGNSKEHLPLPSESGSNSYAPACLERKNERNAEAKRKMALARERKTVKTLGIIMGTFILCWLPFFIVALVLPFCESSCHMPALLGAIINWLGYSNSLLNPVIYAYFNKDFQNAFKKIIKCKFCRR
5-HT2A receptor, sequence (P14842 whole entry): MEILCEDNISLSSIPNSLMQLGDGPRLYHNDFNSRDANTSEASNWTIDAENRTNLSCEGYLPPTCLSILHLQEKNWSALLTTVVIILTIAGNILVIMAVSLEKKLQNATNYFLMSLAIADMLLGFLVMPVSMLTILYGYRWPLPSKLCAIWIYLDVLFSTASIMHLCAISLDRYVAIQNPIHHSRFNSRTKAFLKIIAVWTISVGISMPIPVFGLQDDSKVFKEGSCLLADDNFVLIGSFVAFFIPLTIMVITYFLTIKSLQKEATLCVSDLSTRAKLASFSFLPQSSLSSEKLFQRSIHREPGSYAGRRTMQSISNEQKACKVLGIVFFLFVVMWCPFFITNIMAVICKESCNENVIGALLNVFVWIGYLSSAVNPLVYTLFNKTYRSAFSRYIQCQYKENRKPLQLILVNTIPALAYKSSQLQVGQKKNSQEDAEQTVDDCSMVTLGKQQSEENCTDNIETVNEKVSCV

CC(C)(C)c1ccc(C(CCN2CCN(c3ccccc3)CC2)OC(N)=O)cc1 (centres unmarked) [Example 5, Carbamic acid 1-(4-tert-butyl-phenyl)-3-(4-phenyl-piperazin-1-yl)-propyl ester]
inhibition at 1 µM [1]: 98.8%
inhibition in vivo at 10 mg/kg ([2]; po, 1 h): 62%
inhibition at 1 µM [3]: 44.4%

NC(=O)OC(CCCN1CCN(c2ncccc2Cl)CC1)c1ccccc1 (centres unmarked) [Example 97, Carbamic acid 4-[4-(3-chloro-pyridin-2-yl)-piperazin-1-yl]-1-phenyl-butyl ester]
IC50 [1]: 0.519 µM
IC50 [3]: 0.181 µM

NC(=O)OC(CCN1CCN(c2ccccc2)CC1)c1cccc([N+](=O)[O-])c1 (centres unmarked) [Example 4, Carbamic acid 1-(3-nitro-phenyl)-3-(4-phenyl-piperazin-1-yl)-propyl ester]
inhibition at 1 µM [1]: 86.4%
inhibition in vivo at 10 mg/kg ([2]; po, 1 h): 48%
inhibition at 1 µM [3]: 74.6%

NC(=O)OC(CCCN1CCN(c2ccccn2)CC1)c1ccccc1 (centres unmarked) [Example 96, Carbamic acid 1-phenyl-4-(4-pyridin-2-yl-piperazin-1-yl)-butyl ester]
IC50 [1]: 3.14 µM
IC50 [3]: 0.0204 µM

COc1ccc(C(CCN2CCN(c3ccccc3)CC2)OC(N)=O)cc1 (centres unmarked) [Example 8, Carbamic acid 1-(4-methoxy-phenyl)-3-(4-phenyl-piperazin-1-yl)-propyl ester]
inhibition at 1 µM [1]: 82%
inhibition in vivo at 10 mg/kg ([2]; po, 1 h): 43%
inhibition at 1 µM [3]: 67.7%

NC(=O)OC(CCN1CCN(c2ccc(F)cc2)CC1)c1ccccc1 (centres unmarked) [Example 21, Carbamic acid 3-[4-(4-fluoro-phenyl)-piperazin-1-yl]-1-phenyl-propyl ester]
IC50 [1]: 0.0645 µM
inhibition in vivo at 10 mg/kg [2]: 88%
IC50 [3]: 1.05 µM

COc1cccc(N2CCN(CCC(OC(N)=O)c3ccccc3)CC2)c1 (centres unmarked) [Example 26, Carbamic acid 3-[4-(3-methoxy-phenyl)-piperazin-1-yl]-1-phenyl-propyl ester]
IC50 [1]: 0.502 µM
IC50 [3]: 0.0808 µM

NC(=O)OC(CCN1CCN(C(c2ccc(F)cc2)c2ccc(F)cc2)CC1)c1ccccc1 (centres unmarked) [Example 93, Carbamic acid 3-{4-[bis-(4-fluoro-phenyl)-methyl]-piperazin-1-yl}-1-phenyl-propyl ester]
IC50 [1]: 0.94 µM
IC50 [3]: > 10 µM

NC(=O)OC(CCN1CCN(c2cccc(C(F)(F)F)c2)CC1)c1ccccc1 (centres unmarked) [Example 39, Carbamic acid 1-phenyl-3-[4-(3-trifluoromethyl-phenyl)-piperazin-1-yl]-propyl ester]
IC50 [1]: 0.66 µM
IC50 [3]: 0.0126 µM

NC(=O)OC(CCN1CCN(c2ccccn2)CC1)c1ccccc1 (centres unmarked) [Example 25, Carbamic acid 1-phenyl-3-(4-pyridin-2-yl-piperazin-1-yl)-propyl ester]
IC50 [1]: 0.448 µM
IC50 [3]: 0.338 µM

NC(=O)OC(CCN1CCN(c2ccc(Cl)cc2)CC1)c1ccccc1 (centres unmarked) [Example 22, Carbamic acid 3-[4-(4-chloro-phenyl)-piperazin-1-yl]-1-phenyl-propyl ester]
IC50 [1]: 0.264 µM
IC50 [3]: 1.86 µM

COc1ccccc1N1CCN(CCCC(OC(N)=O)c2ccccc2)CC1 (centres unmarked) [Example 95, Carbamic acid 4-[4-(2-methoxy-phenyl)-piperazin-1-yl]-1-phenyl-butyl ester]
IC50 [1]: 1.5 µM
IC50 [3]: 0.00582 µM

COc1ccc(N2CCN(CCC(OC(N)=O)c3cccc(C(F)(F)F)c3)CC2)cc1 (centres unmarked) [Example 68, Carbamic acid 3-[4-(4-methoxy-phenyl)-piperazin-1-yl]-1-(3-trifluoromethyl-phenyl)-propyl ester]
inhibition in vivo at 10 mg/kg ([2]; po, 1 h): 48%

Cc1ccc(C(CCN2CCN(c3ccccc3)CC2)OC(N)=O)cc1 (centres unmarked) [Example 10, Carbamic acid 3-(4-phenyl-piperazin-1-yl)-1-p-tolyl-propyl ester]
inhibition at 1 µM [1]: 85.6%
inhibition at 1 µM [3]: 59.6%

NC(=O)OC(CCN1CCN(c2ccccc2O)CC1)c1ccccc1 (centres unmarked) [Example 23, Carbamic acid 3-[4-(2-hydroxy-phenyl)-piperazin-1-yl]-1-phenyl-propyl ester]
inhibition in vivo at 10 mg/kg ([2]; po, 1 h): 37%

COc1ccc(N2CCN(CCC(OC(N)=O)c3cccc(F)c3)CC2)cc1 (centres unmarked) [Example 53, Carbamic acid 1-(3-fluoro-phenyl)-3-[4-(4-methoxy-phenyl)-piperazin-1-yl]-propyl ester]
inhibition in vivo at 10 mg/kg ([2]; po, 1 h): 57%

CC(CC(OC(N)=O)c1ccccc1)N1CCN(c2ccc(Cl)c(Cl)c2)CC1 (centres unmarked) [Example 115, Carbamic acid 3-[4-(3,4-dichloro-phenyl)-piperazin-1-yl]-1-phenyl-butyl ester]
inhibition in vivo at 10 mg/kg ([2]; po, 1 h): 68%

COc1ccc(N2CCN(CCC3OC(=O)Nc4ccccc43)CC2)cc1 (centres unmarked) [Example 107, 4-{2-[4-(4-methoxy-phenyl)-piperazin-1-yl]-ethyl}-1,4-dihydro-benzo[d][1,3]oxazin-2-one]
inhibition in vivo at 10 mg/kg ([2]; po, 1 h): 35%

COc1ccc(N2CCN(CCC(OC(N)=O)c3ccc(C(C)(C)C)cc3)CC2)cc1 (centres unmarked) [Example 48]
inhibition in vivo at 10 mg/kg ([2]; po, 1 h): 93%

COc1ccc(N2CCN(CCC(OC(N)=O)c3ccc(Cl)cc3)CC2)cc1 (centres unmarked) [Example 71, Carbamic acid 1-(4-chloro-phenyl)-3-[4-(4-methoxy-phenyl)-piperazin-1-yl]-propyl ester]
inhibition in vivo at 10 mg/kg ([2]; po, 1 h): 61%

NC(=O)OC(CCN1CCN(c2ccc(Cl)c(Cl)c2)CC1)c1ccccc1 (centres unmarked) [Example 31, Carbamic acid 3-[4-(3,4-dichloro-phenyl)-piperazin-1-yl]-1-phenyl-propyl ester]
inhibition in vivo at 10 mg/kg ([2]; po, 1 h): 85%

NC(=O)OC(CCN1CCN(c2ccc3c(c2)OCCO3)CC1)c1ccccc1 (centres unmarked) [Example 11, Carbamic acid 3-[4-(2,3-dihydro-benzo[1,4]dioxin-6-yl)-piperazin-1-yl]-1-phenyl-propyl ester]
inhibition in vivo at 10 mg/kg ([2]; po, 1 h): 48%

NC(=O)OC(CCN1CCN(c2ccc(OC(=O)OCc3ccccc3)cc2)CC1)c1ccc(F)cc1 (centres unmarked) [Example 91, Carbonic acid benzyl ester 4-{4-[3-carbamoyloxy-3-(4-fluoro-phenyl)-propyl]-piperazin-1-yl}-phenyl ester]
inhibition in vivo at 10 mg/kg ([2]; po, 1 h): 45%

CC(=O)Oc1ccc(N2CCN(CCC(OC(N)=O)c3ccc(F)cc3)CC2)cc1 (centres unmarked) [Example 92, Acetic acid 4-{4-[3-carbamoyloxy-3-(4-fluoro-phenyl)-propyl]-piperazin-1-yl}-phenyl ester]
ED50 ([2]; ip): 0.22 mg/kg
ED50 ([2]; po): 5.66 mg/kg

NC(=O)OC(CCN1CCN(c2ccc(C(F)(F)F)cc2[N+](=O)[O-])CC1)c1ccccc1 (centres unmarked) [Example 35, Carbamic acid 3-[4-(2-nitro-4-trifluoromethyl-phenyl)-piperazin-1-yl]-1-phenyl-propyl ester]
inhibition in vivo at 10 mg/kg ([2]; po, 1 h): 50%

NC(=O)OC(CCN1CCN(c2ccc(OC3CCCC3)cc2)CC1)c1ccccc1 (centres unmarked) [Example 87, Carbamic acid 3-[4-(4-cyclopentyloxy-phenyl)-piperazin-1-yl]-1-phenyl-propyl ester]
inhibition in vivo at 10 mg/kg ([2]; po, 1 h): 58%
